Experimental data: EP0258134A1, “Therapeutical compositions containing benzhydryl thiomethane derivatives” (LABORATOIRE L. LAFON, priority 1986, dated 1988)

How the values were obtained:
Solubility in water = assay type: physicochemical; details: result in words
Source text: Le composé est une poudre blanche, insoluble dans l'éther de pétrole, soluble dans l'éther, l'acé-tate d'éthyle et les alcools. Sa solubilité dans l'eau est inférieure à 0,1%.

souris [1] = assay: Pretoxicity, i.p., 3 mice per dose; assay type: in vivo
Procedure: (§1) Le composé CRL 41 334, en suspension dans une solution de gomme arabique, a été administré par voie intrapéritonéale sous un volume de 20 ml/kg chez la souris (mâle, NMRI, C.E.R. Janvier) et de 5 ml/kg chez le rat (mâle, CD₁; SPRAGUE DAWLEY, Charles River).
I - PRETOXICITE ( 3 souris par dose)
(§2) Le CRL 41 055, en suspension dans une solution de gomme arabique, a été administré par voie intrapéritonéale sous un volume de 20 ml/kg chez la souris (mâle, NMRI, Evic Ceba).
Prétoxicite (3 souris par dose)
(§3) Le CRL 40 956, en suspension dans une solution de gomme arabique a été administré par voie intrapéritonéale sous un volume de 20 ml/kg chez la souris (mâle, NMRI, Evic Céba) et de 5 ml/kg chez le rat (mâle, CD₁, Sprague Dawley, Charles River).
Prétoxicité ( 3 souris par dose)

souris [2] = assay: Global behaviour and reactivities, mouse, i.p.; assay type: in vivo
Procedure: as §1
(§4) Des lots de 3 animaux sont observés avant, puis 15 mn, 30 mn, 1h, 2h, 3h et 24 heures après l'administration du composé CRL 41 334.
as §2, §3
(§5) Des lots de 3 animaux sont observés avant, puis 15 mn, 30 mn, 1 h, 2 h, 3 h et 24 heures après l'administration de CRL 40 956.

rat [3] = assay: Global behaviour and reactivities, rat, i.p.; assay type: in vivo; details: rat
Procedure: as §1, §4, §3, §5

rat [4] = assay: Interaction with apomorphine, rat; assay type: in vivo; details: 64 et 256 mg/kg, apomorphine 0,5 mg/kg s.c.
Procedure: Le composé CRL 41 334 est administré à des lots de 6 rats une demi-heure avant l'injection sous-cutanée de 0,5 mg/kg d'apomorphine.
Le CRL 40 956 est administré à des lots de 6 rats une demi-heure avant l'injection sous cutanée de 0,5 mg/kg d'apomorphine.

souris [5] = assay: Spontaneous motility (actimeter); assay type: in vivo; details: souris, half an hour before the actimeter
Procedure: Après avoir reçu le composé CRL 41 334, les souris sont placées en actimètre où leur motilité est enregistrée pendant 30 minutes.
Une demi-heure après avoir reçu le CRL 41 055, les souris (6 par dose, 12 témoins) sont placées en actimètre où leur motilité est enregistrée pendant 30 minutes.
Une demi-heure après avoir reçu le CRL 40 956, les souris (6 par dose, 12 témoins) sont placées en actimètre ou leur motilité est enregistrée pendant 30 minutes.

souris [6] = assay: Intergroup aggressiveness; assay type: in vivo; details: 128 mg/kg
Procedure: Après avoir séjourné pendant 3 semaines dans chacune des moitiés d'une cage séparées par une cloison opaque, des groupes de 3 souris reçoivent le composé CRL 41 334. Une demi-heure plus tard, les deux groupes d'une même cage sont réunis par retrait de la cloison et on note le nombre de combats qui surviennent en 10 minutes. Le test est pratiqué pour moitié sur les souris habituelles (NMRI, C.E.R. Janvier) et pour moitié sur des souris NMRI (Iffa Credo).
Après avoir séjourné pendant 3 semaines dans chacune des moitiés d'une cage séparée par une cloison opaque, des groupes de 3 souris reçoivent le CRL 40 956. Une demi-heure plus tard, les deux groupes d'une même cage sont réunis par retrait de la cloison et on note le nombre de combats qui surviennent en 10 minutes.

souris [7] = assay: Asphyxic anoxia (gallamine triethiodide); assay type: in vivo; details: 512 mg/kg, gallamine 32 mg/kg i.p.
Procedure: Des lots de 20 souris reçoivent le composé CRL 41 334 une demi-heure avant l'administration intrapéritonéale de 32 mg/kg de triiodoéthylate de gallamine.
Des lots de 10 souris reçoivent le CRL 40 956 une demi-heure avant l'administration intrapé-ritonéale de 32 mg/kg de triodoéthylate de Gallamine.

souris [8] = assay: Interaction with barbital; assay type: in vivo; details: souris, 512 mg/kg, barbital 200 mg/kg i.p.
Procedure: Une demi-heure après l'administration du composé CRL 41 334, des lots de 20 souris reçoivent une injection intrapéritonéale de barbital ([…]).
Une demi-heure après l'administration du CRL 40 956 des lots de 10 souris reçoivent une injection intrapéritonéale de 200 mg/kg de barbital.

souris [9] = assay: Behavioural despair (forced immersion); assay type: in vivo; details: souris, 512 mg/kg
Source text: Une demi-heure après avoir reçu le composé CRL 41 334, des lots de 6 souris (mâles, CD₁, Charles River) sont placés dans un bécher rempli d'eau sur une hauteur de 6 cm. On note la durée totale d'immobilité entre la 2ème et la 6ème minutes suivant l'immersion.
Une demi-heure après avoir reçu le CRL 40 956, des lots de 10 souris (mâles CD₁ Charles River) sont plongées dans une enceinte réduite remplie d'eau sur une hauteur de 6 cm. On note la durée totale d'immobilité entre la 2ème et la 6ème minute suivant l'immersion.

souris [10] = assay: Motility reduced by habituation to the enclosure; assay type: in vivo; details: 32 et 128 mg/kg
Procedure: Après 18 heures de séjour dans les actimè-tres, les souris (6 par dose, 12 témoins) reçoivent le composé CRL 41 334. Elles sont aussitôt replacées dans leurs enceintes respectives et, une demi-heure plus tard, on enregistre leur motilité pendant 30 minutes.
Après 18 heures de séjour dans les actimètres, les souris (6 par dose, 12 émoins) reçoivent le CRL 41 055. Elles sontaussitôt replacées dans leurs enceintes respectives et, une demi-heure plus tard, on enregistre leur motilité pendant 30 minutes.

homme = assay: Therapeutic use in humans; assay type: in vivo; details: trois gélules de 50 mg par jour
[11] = system: souris femelles de souche OF₁; assay: Delayed hypersensitivity reaction to sheep red blood cells; assay type: in vivo; details: for Ind. Activité / % d'augmentation du coussinet (mm) m: voie orale; for % d'augmentation du coussinet (mm) m: trois jours avant immunisation
Source text: Selon la méthode de Miller, Lagrange et Mackaness ("Immunopotentiation with BCG II modulation of the response to sheep red blood cells", Journal of the National Cancer Institute 1973, 51, 5, 1669 - 1676).
Le composé à tester est administré par voie orale a des souris femelles de souche OF₁ trois jours avant immunisation.
Les résultats sont exprimés en pourcentage d'augmentation du coussinet plantaire.

rat [12] = assay: Search for stereotyped movements, rat; assay type: in vivo; details: in vivo, 2 mg/kg
Source text: Des lots de 6 rats reçoivent une injection du composé CRL 41 334 ou d'amphétamine, puis sont immédiatement placés dans des boîtes de petites dimensions (20 x 10 x 10 cm) où leur comportement stéréotypeé est coté de 0 à 3 jusqu'à extinction de l'effet.

ON=CCSC(c1ccccc1)c1ccccc1 [CRL 40 956, 2-(benzhydrylthio)acétaldoxime]
solubilité dans l'eau (Solubility in water): Insoluble dans l'eau | symptômes (souris [1]; 256 mg/kg i.p.): mêmes symptômes | mortalité (souris [1]; 1024 et 512 mg/kg i.p.): pas de mortalité | symptômes (souris [1]; 1024 et 512 mg/kg i.p.): crampes abdominales, dyspnée | comportement et réactivités (souris [2]; souris, 512 mg/kg i.p.): sédation pendant 2 à 3 heures | comportement et réactivités (souris [2]; souris, 128, 32 et 8 mg/kg i.p.): pas de symptômes nets | comportement et réactivités (rat [3]; 64 mg/kg i.p.): sédation pendant 3 heures avec diminution | comportement et réactivités (rat [3]; 256 mg/kg i.p.): sédation pendant 3 heures | stéréotypies induites par l'apomorphine (rat [4]): diminue très modérément l'intensité des stéréotypies | activité motrice spontanée (souris [5]; 512 mg/kg): diminue fortement l'activité motrice spontanée | nombre de combats (souris [6]): diminue le nombre de combats | apparition des convulsions et de la mort (souris [7]): retarde modérément l'apparition des convulsions et de la mort | durée du sommeil barbiturique (souris [8]): diminue la durée du sommeil barbiturique | durée d'immobilité "de désespoir" (souris [9]): diminue la durée d'immobilité

NC(=O)CSC(c1ccccc1)c1ccccc1 [CRL 41 055, 2-(benzhydrylthio)acétamide]
solubilité dans l'eau (Solubility in water): insoluble dans l'eau | symptômes (souris [1]; 64 mg/kg i.p., after 45 minutes, lasting more than 2 hours): excitation, stéréotypies (reniflements, redressements) | symptômes (souris [1]; 512 mg/kg i.p.): sédation, fréquence respiratoire diminuée, contractions abdominales | convulsions (souris [1]; 512 mg/kg i.p., 18 heures après l'injection): convulsions intermittentes présentes chez toutes les souris | mortalité (souris [1]; 512 mg/kg i.p., après 48 heures): 1/3 | symptômes (souris [1]; 1024 mg/kg i.p.): mêmes symptômes | mortalité (souris [1]; 128 et 256 mg/kg i.p.): Pas de mortalité | symptômes (souris [1]; 128 et 256 mg/kg i.p.): pendant 45 minutes sédation, fréquence respiratoire diminuée | comportement et réactivités (souris [2]; souris, 2 mg/kg i.p.): pas de modifications nettes | comportement et réactivités (souris [2]; souris, 128 mg/kg i.p.): sédation pendant 30 minutes faisant place à une excitation tardive | comportement et réactivités (souris [2]; souris, 8 et 32 mg/kg i.p.): excitation pendant 2 heures | motilité spontanée (souris [5]; 32 et 128 mg/kg): augmentation de motilité spontanée | activité motrice chez la souris habituée à son enceinte (souris [10]): reprise nette de l'activité motrice | thérapeutique humaine comme antidépresseur (homme): s'est avéré utile

O=C(CSC(c1ccc(F)cc1)c1ccc(F)cc1)NO [CRL 41 335, acide 2-(4,4ʹ-difluorobenzhydrylthio)acétohydroxamique]
solubilité dans l'eau (Solubility in water): insoluble dans l'eau | Ind. Activité ([11]; Exp 1, 0,1 mg/kg): 1,29 | % d'augmentation du coussinet (mm) m ([11]; Exp 1, 0,1 mg/kg): 11,5% | Ind. Activité ([11]; Exp 1, 1 mg/kg): 0,94 | % d'augmentation du coussinet (mm) m ([11]; Exp 1, 1 mg/kg): 8,4% | Ind. Activité ([11]; Exp 1, 10 mg/kg): 1,00 | % d'augmentation du coussinet (mm) m ([11]; Exp 1, 10 mg/kg): 8,9% | Ind. Activité ([11]; Exp 1, 100 mg/kg): 0,77 | % d'augmentation du coussinet (mm) m ([11]; Exp 1, 100 mg/kg): 6,9% | action immunostimulante ([11]; overall statement in the text): dépourvu d'une telle action immostimulante

CC(N)Cc1ccccc1 (stereo not drawn) [amphétamine, reference compound]
durée des stéréotypies (rat [12]): 270 min
